The values below come from patent US11123350B2, “Metal delivery agents and therapeutic uses of the same” (THE UNIVERSITY OF MELBOURNE, priority 2006, dated 2021).

Series [1] relates to APP-transfected Chinese Hamster Ovary (APP-CHO) cells. The series can be described thus: Cellular copper uptake of Cu-BTSC complexes (ICP-MS). The class given is cell-based. On the procedure:
APP-transfected Chinese Hamster Ovary (APP-CHO) cells were treated with a range of [Cu(BTSC] complexes with dialkyl backbones at 1-50 μM for 6 hr in serum-free culture medium. Cells were washed twice with phosphate buffered saline (PBS) and cells scraped into fresh PBS and pelleted at 10,000 rpm in a microfuge for 5 min. Supernatant was discarded and cell pellets frozen at −70° C. until metal levels were determined by inductively-coupled plasma mass spectrometry (ICP-MS) at the Department of Pathology, University of Melbourne.

Series [2] concerns M17 human neuroblastoma cells. Description: Ionophore assay (metal uptake, ICPMS). The class given is cell-based. The conditions noted are these: 5 hours at 37° C., reported versus internal control Clioquinol. On the procedure: M17 human neuroblastoma cells were plated out on 6 well plates and left overnight. Enough cells were added to give approximately 70% confluent the following day of the experiment.
The test cells were incubated in 1 ml of media and compound mix for 5 hours at 37° C. At the end of the incubation the media was removed with a vacuum aspirator and 1 ml of PBS added to dislodge the cells. Cells are then put into Eppendorf tubes and pelleted. The PBS is removed and the remaining cell pellets are frozen at −20° C.
Cell pellets of similar levels are placed in 1.5 ml microfuge tubes. To each tube was added 50 μl of concentrated Nitric Acid (Aristar, BDH) to each cell pellet and allowed each cell pellet was allowed to digest overnight. The samples were heated for 20 min at 90° C. to complete the digestion. The volume of each sample was reduced to ˜45 ? l after digestion. To each was added 1 ml of the 1% Nitric Acid diluent. Measurements were made using a Varian UltraMass ICPMS instrument under operating conditions suitable for routine multi-element analysis.
The instrument was calibrated using Blank, 10, 50 and 100 ppb of a certified multi-element ICPMS standard solution (ICP-MS-CAI2-1, Accustandard) for Fe, Cu and Zn in 1% nitric acid. Used an certified internal standard solution containing 100 ppb Yttrium (Y 89) as an internal control (ICP-MS-IS-MIX1-1, Accustandard).

Another series deals with WT cells. Description: Dopamine induced cell death, WT cells (MTT). The class given is cell-based. How it is done: A series of trials were conducted in which the effect of CuGTSM on inhibiting Dopamine induced cell death were conducted on WT cells and A30P cells. The protocol used was as follows.
The cell line was maintained in OPTI-MEM (Gibco) supplemented with 10% fetal calf serum (FCS), Non-essential amino acids, sodium pyruvate and Penn/Strep. Cells were incubated at 37° C. in a humidified atmosphere of 95% air and 5% CO2. Cell assays were plated out into 48 well culture plates at 4×10^4 cells per well. Cells were left to settle overnight then incubated with drugs for 24h prior to being subjected to MTT assays for cell viability.
The viability of cells was assessed using an MTT assay. […] The mixture of media and reagents e.g. Dopamine was aspirated off and media containing 5 mg/mI MTT is added and the plate incubated for 1 h at 37° C. The remaining media/MTT solution is aspirated off and the cells were then solubilized with DMSO. The 48 well plate is then read at 595 nm on a plate reader.
In essence a series of WT cells and A30P cells were treated with a control, Dopamine, CuGTSM, Cu ATSM, and combinations of Dopamine and CuGTSM, and dopamine and CuATSM at various concentrations to determine the ability of the compound to act as an anti-oxidant and […] cell death. The results are shown in table 15 (WT cells) and Table 16 (A30P cells)

Series [3] deals with mice with 6-OHDA lesion of the SNpc. The series can be described thus: 6-OHDA lesion Parkinson's disease model, amphetamine-induced rotation. As to conditions: oral gavage 10 or 30 mg/kg daily, 7 days pre-lesion and 14 days post lesion. Type of series: in vivo.
The test system of a further series is EAE mouse model. The series can be described thus: Experimental autoimmune encephalomyelitis (EAE) mouse model of MS. Type of series: in vivo. The conditions noted are these: daily oral treatment. An excerpt: (§1) I. Cu(ATSM) is protective in mouse models of MS. The two most widely used mouse models of MS are the experimental autoimmune encephalomyelitis (EAE) and cuprizone models. Some features of progressive MS are evident in each model. Administration of Cu(ATSM) to these mice (daily oral treatment) established that: (a) Cu(ATSM) improved body weight changes and neurological symptoms evident in the EAE mouse model; (b) Cu(ATSM) improved body weight changes evident in the cuprizone mouse model; and (c) treating with Cu(ATSM) improves myelination in the corpus callosum of the cuprizone mouse model.

Another series has as its system cuprizone mouse model. Description: Cuprizone mouse model of MS. The class given is in vivo. The conditions noted are these: daily oral treatment.
From the text: as §1

The conditions of series [4]: cited from earlier work.
For the next series, the system named is G93A-SOD1 mice. Description: G93A SOD1 ALS mice: survival and onset of paralysis.

Take `CN=C([S-])N/N=C(C)/C(C)=N/NC([S-])=NC.[64Cu+2]` [Complex A2, copper(II)diacetylbis(N(4)-methylthiosemicarbazone)]: in series [1] (1-50 μM, 6 hr), the “fold increase in cellular copper levels compared to untreated control cells” value is 177±9 fold. Besides, the “cellular Copper level” value in series [1] (treated, control 4.5) worked out at 796 ng/mg protein. Besides, the “Ionophore (% uptake of metal at 10 μm)” value in series [2] worked out at 157.1%. In addition, the “% recovery” value in the series with WT cells (Dopamine 500 μm + complex 0.01 μM) is reported as 64.28%. The “% recovery” value in the series with WT cells (Dopamine 500 μm + complex 0.1 μM) came out at 103.13%. The “amphetamine-induced rotation versus control group” value in series [3] is reported as “performed better”. In the series with EAE mouse model, the “body weight changes in the EAE mouse model” value is on record as “improved” and the “neurological symptoms in the EAE mouse model” value is recorded as “improved”. Moreover, in the series with cuprizone mouse model, the “body weight changes in the cuprizone mouse model” value is recorded as “improved” and the “myelination in the corpus callosum” value was “improves”. For the same compound, the “reduction potential E1/2” value in series [4] (Cu(II) to Cu(I)) is listed as −0.59 V. Further, the “Cu(II)/Cu(I) reduction potential, harder to reduce than [Cu(GTSM)]” value in series [4] (difference to [Cu(GTSM)]) is about 160 mV. For the same compound, the “onset of paralysis in ALS mice” value in the series on G93A-SOD1 mice (30 mg/kg gavage once daily (5 days/week)) is on record as “significantly delays”. Further, in the series with G93A-SOD1 mice (G93A-SOD1 mice, present results), the “Increased Life Span” value was 31 to 33 days.
